Test systems include 786-0 renal; CAKI-1 renal; HT29 colon; KM12 colon; M14 melanoma; NCI-H23 lung; NCI-H460 lung; OVCAR-8 ovarian; SF-539 CNS; UO-31 renal.
Common to all, as to assay: NCI anticancer screen, dose series, 48 h

Each structure is given as a SMILES string.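 1) Cells in 96-well plates. 2) Compound, 48 h, 5 concentrations. 3) Linear interpolation between surrounding doses. 4) Unreached endpoint = highest concentration. Abbreviation: GI50, concentration required for 50% inhibition of growth. At the TGI there is no net growth.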

`O=C(O)CCCc1cc2c(s1)-c1cccc3cccc-2c13`: the TGI in the experiment on 786-0 renal was over 100 µM; with CAKI-1 renal, over 100 µM; in the experiment with HT29 colon, over 100 µM; in the experiment with KM12 colon it was 42.3 µM; with M14 melanoma, over 100 µM; with NCI-H23 lung, 41.2 µM. Besides, the TGI was over 100 µM in the experiment with NCI-H460 lung, over 100 µM in the experiment with OVCAR-8 ovarian, over 100 µM in the experiment on SF-539 CNS and 43.4 µM in the experiment with UO-31 renal.

Regarding `NCCCCCCCCCn1c2c(c3ccccc3c1=O)C(=O)c1ccccc1-2`, the GI50 is 7.72 µM with 786-0 renal; 9.15 µM in the experiment on CAKI-1 renal; 8.5 µM with HT29 colon; 9.53 µM in the experiment on KM12 colon; 9.67 µM in the experiment on M14 melanoma; 7.94 µM with NCI-H23 lung. Moreover, the GI50 with NCI-H460 lung was 2.8 µM; with OVCAR-8 ovarian it was 12.5 µM; with SF-539 CNS, 9.83 µM; with UO-31 renal it was 7.68 µM. Moreover, the TGI with 786-0 renal was determined as 15.9 µM; with CAKI-1 renal, 18.8 µM; in the experiment on HT29 colon, 27.1 µM; in the experiment on KM12 colon, 22.2 µM; with M14 melanoma, 18 µM; in the experiment with NCI-H23 lung it was 17 µM. In addition, the TGI in the experiment on NCI-H460 lung is 14.2 µM; with OVCAR-8 ovarian, over 50 µM; in the experiment with SF-539 CNS, 19.3 µM; in the experiment on UO-31 renal, 18.6 µM.

In the case of `CCN(CC)CC(O)c1cc(-c2ccc(Cl)cc2)nc2cc(Cl)ccc12` (stereo not given), the GI50 was 1.9 µM in the experiment on 786-0 renal; 1.21 µM in the experiment on CAKI-1 renal; 1.71 µM in the experiment with HT29 colon; 1.7 µM with KM12 colon; 1.83 µM in the experiment with M14 melanoma; 1.79 µM with NCI-H23 lung. In addition, the GI50 in the experiment on NCI-H460 lung is 1.64 µM; in the experiment with OVCAR-8 ovarian it was 1.96 µM; in the experiment on SF-539 CNS, 2.03 µM; in the experiment on UO-31 renal it was 1.06 µM. Moreover, the TGI amounted to 3.41 µM in the experiment on 786-0 renal; 2.64 µM with CAKI-1 renal; 3.66 µM in the experiment on HT29 colon; 3.18 µM in the experiment with KM12 colon; 3.44 µM in the experiment on M14 melanoma; 4.49 µM with NCI-H23 lung. The TGI in the experiment with NCI-H460 lung came out at 3.17 µM; in the experiment on OVCAR-8 ovarian it was 4.12 µM; in the experiment with SF-539 CNS, 4.63 µM; with UO-31 renal, 3.27 µM.

As to `C=CNC(=S)n1nc(-c2ccccc2NC(=O)C(F)(F)F)c(=O)n(C(=S)NC=C)c1=S`, the TGI with 786-0 renal is over 1 µM; in the experiment with CAKI-1 renal, over 100 µM; in the experiment with HT29 colon it was 60.1 µM; with KM12 colon, over 100 µM; with M14 melanoma, over 100 µM; in the experiment on NCI-H23 lung it was over 100 µM. The TGI in the experiment on NCI-H460 lung is 47.3 µM; in the experiment on OVCAR-8 ovarian it was over 100 µM; in the experiment with SF-539 CNS, over 1 µM; in the experiment with UO-31 renal it was 73.6 µM.

On to `CC(C)OC(=O)c1cccnc1/C=N/O`, for which the TGI in the experiment with 786-0 renal, in the experiment on CAKI-1 renal, in the experiment on HT29 colon, in the experiment on KM12 colon, in the experiment with M14 melanoma and with NCI-H23 lung was over 100 µM throughout. The TGI with NCI-H460 lung, in the experiment with OVCAR-8 ovarian, in the experiment on SF-539 CNS and in the experiment with UO-31 renal was over 100 µM in each case.

For `C=C(C)[C@@H]1CC[C@]2(C(=O)N3CCN(C)CC3)CC[C@]3(C)[C@H](CC[C@@H]4[C@@]5(C)CC[C@H](O)C(C)(C)[C@@H]5CC[C@]43C)[C@@H]12`, the GI50 in the experiment with 786-0 renal was 1.49 µM; in the experiment with CAKI-1 renal, 1.59 µM; in the experiment with HT29 colon, 1.41 µM; with KM12 colon it was 2.09 µM; in the experiment with M14 melanoma, 1.89 µM; in the experiment with NCI-H23 lung it was 1.92 µM. The GI50 in the experiment with NCI-H460 lung is 2.02 µM; in the experiment on OVCAR-8 ovarian it was 1.69 µM; with SF-539 CNS, 1.69 µM; with UO-31 renal, 1.67 µM. In addition, the TGI with 786-0 renal amounted to 3.17 µM; in the experiment on CAKI-1 renal, 3.05 µM; in the experiment with HT29 colon, 3.09 µM; in the experiment with KM12 colon, 4.03 µM; in the experiment on M14 melanoma, 3.76 µM; with NCI-H23 lung, 3.82 µM. The TGI in the experiment with NCI-H460 lung came out at 4.04 µM; in the experiment on OVCAR-8 ovarian it was 4.56 µM; in the experiment with SF-539 CNS, 3.12 µM; in the experiment with UO-31 renal, 3.24 µM.

Take `C/C(CC(=O)Nc1cccc(C)c1C)=N\NC(N)=S`: the TGI in the experiment on 786-0 renal, in the experiment on CAKI-1 renal, in the experiment with HT29 colon, in the experiment with KM12 colon, in the experiment on M14 melanoma and with NCI-H23 lung was over 100 µM each time. The TGI with NCI-H460 lung, in the experiment with OVCAR-8 ovarian, with SF-539 CNS and with UO-31 renal was over 100 µM in each case.

Take `COC(=O)[C@H](C)[C@@H]1CC[C@](C)(CCC2=C(C)CCCC2(C)C)OO1`: the TGI in the experiment on 786-0 renal, with CAKI-1 renal, in the experiment with HT29 colon, in the experiment with KM12 colon, in the experiment with M14 melanoma and in the experiment with NCI-H23 lung was over 25 µM in each case. Also, the TGI in the experiment on NCI-H460 lung, with OVCAR-8 ovarian, with SF-539 CNS and in the experiment with UO-31 renal was over 25 µM throughout.

As to `CC(C)=Cc1cc(C(=O)NCCNC(=O)c2cc(C=C(C)C)nc(NC#N)n2)nc(NC#N)n1`, the TGI with 786-0 renal, with CAKI-1 renal, in the experiment on HT29 colon, with KM12 colon, with M14 melanoma and in the experiment on NCI-H23 lung was over 100 µM in each case. Further, the TGI in the experiment with NCI-H460 lung, with OVCAR-8 ovarian, in the experiment on SF-539 CNS and with UO-31 renal was over 100 µM in each case.

The values above are taken from PubChem BioAssay (NCI).
